How the values were obtained:
[1] = system: Mammalian Erythrocyte Micronucleus; assay: In vivo test for clastogenic effects, Mammalian Erythrocyte Micronucleus Test (OECD 474)
Excerpt: In vivo test for clastogenic effects performed on 3,6,7-trimethyl-2,6-octadienenitrile and 3,7-dimethyl-2,6-octadienenitrile under the conditions required by the standard test protocol for Mammalian Erythrocyte Micronucleus Test (OECD 474, OECD web site http://lysander.sourceoecd.org/v1=155221/c1=19/nw=1/rpsv/ij/oecdjournals/1607310x/v1n 4/s39/p1) gave the following results: • 3,6,7-trimethyl-2,6-octadienenitrile: the test was negative (i.e. no perceived toxicity) in the dose range between 200-1200 mg/kg. • 3,7-dimethyl-2,6-octadienenitrile: the test was positive (i.e. perceived toxicity) in the dose range between 500-1250 mg/kg (overlapping the dose range of the invention compound herein above). This ingredient has been banned for its clastogenic effect.

[2] = reason for ban; cited from earlier work

| Compound | Clastogenicity (induction of chromosome-damages) ([1]; E and Z isomers or a mixture thereof) | Mammalian Erythrocyte Micronucleus Test result (clastogenic effects) ([1]; dose range between 200-1200 mg/kg) | Mammalian Erythrocyte Micronucleus Test result (clastogenic effects) ([1]; dose range between 500-1250 mg/kg) | Mutagenicity [2] |
| --- | --- | --- | --- | --- |
| CC(=CC#N)CCC(C)=C(C)C [3,6,7-trimethyl-2,6-octadienenitrile] | not clastogenic | negative |  |  |
| CC(C)=CCCC(C)=CC#N [3,7-dimethyl-2,6-octadienenitrile] |  |  | positive | mutagenic |
